Laboratory results: patent US6737383B1, “Herbicidal oxadiazolidines” (priority 1999, dated 2004)

Tests used:
bedstraw = experiment: Test B pre/postemergence bedstraw; type: in vivo, Galium aparine; settings: Rate 62 g/ha, Postemergence; scale 0 to 10, 0 no effect, 10 complete control
How it was run: (§1)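 Test chemicals in a non-phytotoxic solvent mixture with surfactant were sprayed preemergence onto planted seeds and postemergence onto plants 2 to 18 cm tall (1- to 4-leaf stage). After twelve to sixteen days in a greenhouse, injury was visually rated against untreated controls from 0 (no effect) to 10 (complete control).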

blackgrass = experiment: Test B pre/postemergence blackgrass; type: in vivo, Alopecurus myosuroides
How it was run: as §1

surinam grass = experiment: Test B pre/postemergence surinam grass; type: in vivo, Brachiaria decumbens
How it was run: as §1

cocklebur = experiment: Test B pre/postemergence cocklebur; type: in vivo, Xanthium strumarium
How it was run: as §1

corn = experiment: Test B pre/postemergence corn; type: in vivo, Zea mays
How it was run: as §1

crabgrass = experiment: Test B pre/postemergence crabgrass; type: in vivo, Digitaria sanguinalis
How it was run: as §1

giant foxtail = experiment: Test B pre/postemergence giant foxtail; type: in vivo, Setaria faberii
How it was run: as §1

morningglory = experiment: Test B pre/postemergence morningglory; type: in vivo, Ipomoea hederacea
How it was run: as §1

velvetleaf = experiment: Test B pre/postemergence velvetleaf; type: in vivo, Abutilon theophrasti
How it was run: as §1

wheat = experiment: Test B pre/postemergence wheat; type: in vivo, Triticum aestivum
How it was run: as §1

wild oat = experiment: Test B pre/postemergence wild oat; type: in vivo, Avena fatua
How it was run: as §1

purple nutsedge = experiment: Test B pre/postemergence purple nutsedge; type: in vivo, Cyperus rotundus
How it was run: as §1

rice = experiment: Test B flood test rice; type: in vivo, Oryza sativa
How it was run: (§2)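 Read-out is a visual response score from 0 (no effect) to 10 (complete control), assigned by comparison with untreated controls. Treatment was applied at the 2-leaf stage, and plants stayed in the greenhouse for twelve to sixteen days before scoring.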

smallflower flatsedge = experiment: Test B flood test smallflower flatsedge; type: in vivo, Cyperus difformis
How it was run: as §2

duck salad = experiment: Test B flood test duck salad; type: in vivo, Heteranthera limosa
How it was run: as §2

bamyardgrass = experiment: Test B flood test barnyardgrass; type: in vivo, Echinochloa crus-galli
How it was run: as §2

[1] = Postemergence, Rate 250 g/ha, scale 0 to 10
[2] = Postemergence, Rate 500 g/ha, scale of 0 to 10 where 0 is no effect and 10 is complete control
[3] = Preemergence, Rate 62 g/ha, scale of 0 to 10 where 0 is no effect and 10 is complete control
[4] = Preemergence, Rate 125 g/ha, scale of 0 to 10 where 0 is no effect and 10 is complete control
[5] = Preemergence, Rate 250 g/ha, scale 0 to 10, 0 is no effect, 10 is complete control
[6] = Preemergence, Rate 500 g/ha, scale 0 to 10, 0 is no effect, 10 is complete control
[7] = Rate 62 g/ha, Postemergence, scale 0 to 10, 0 no effect, 10 complete control
[8] = Rate 125 g/ha, Postemergence, scale 0 to 10, 0 is no effect, 10 is complete control
[9] = Rate 62 g/ha, flood test species, Pre-emergence, visual evaluation after twelve to sixteen days
[10] = Rate 125 g/ha, under heading Pre-emergence, flood test species, visual evaluation after twelve to sixteen days
[11] = Rate 250 g/ha, Pre-emergence (flood test species), scale 0 to 10, 0 is no effect, 10 is complete control
[12] = Rate 500 g/ha, Pre-emergence, flood test species, scale 0 to 10 (0 no effect, 10 complete control)

Cc1nc(C)c(C(C)n2c(=O)on(C(=O)N(c3ccc(F)cc3F)C(C)C)c2=O)s1 (stereo not drawn) [Compound 443]
Bedstraw plant response rating (bedstraw): 0 | Blackgrass plant response rating (blackgrass; [1]): 0 | Blackgrass plant response rating (blackgrass; [2]): 0 | Plant response rating, Blackgrass (blackgrass; [3]): 0 | Plant response rating, Blackgrass (blackgrass; [4]): 0 | Blackgrass plant response rating (blackgrass; [5]): 0 | Blackgrass plant response rating (blackgrass; [6]): 0 | Blackgrass plant response rating (blackgrass; [7]): 0 | Blackgrass plant response rating (blackgrass; [8]): 0 | B. signalgrass plant response rating (surinam grass; Postemergence, Rate 250 g/ha, scale 0 to 10, 0 no effect, 10 complete control): 0 | B. signalgrass plant response rating (surinam grass; [2]): 0 | Plant response rating, B. signalgrass (surinam grass; [3]): 0 | Plant response rating, B. signalgrass (surinam grass; [4]): 0 | B. signalgrass plant response rating (surinam grass; [5]): 0 | B. signalgrass plant response rating (surinam grass; [6]): 10 | B. signalgrass plant response rating (surinam grass; [7]): 0 | B. signalgrass plant response rating (surinam grass; [8]): 0 | Cocklebur plant response rating (cocklebur; [1]): 0 | Cocklebur plant response rating (cocklebur; [2]): 0 | Plant response rating, Cocklebur (cocklebur; [3]): 0 | Plant response rating, Cocklebur (cocklebur; [4]): 0 | Cocklebur plant response rating (cocklebur; [5]): 0 | Cocklebur plant response rating (cocklebur; [6]): 0 | Cocklebur plant response rating (cocklebur; [7]): 0 | Cocklebur plant response rating (cocklebur; [8]): 0 | Corn plant response rating (corn; [1]): 0 | Corn plant response rating (corn; [2]): 0 | Plant response rating, Corn (corn; [3]): 0 | Plant response rating, Corn (corn; [4]): 0 | Corn plant response rating (corn; [5]): 0 | Corn plant response rating (corn; [6]): 0 | Corn plant response rating (corn; [7]): 0 | Corn plant response rating (corn; [8]): 0 | Crabgrass plant response rating (crabgrass; [1]): 0 | Crabgrass plant response rating (crabgrass; [2]): 0 | Plant response rating, Crabgrass (crabgrass; [3]): 5 | Plant response rating, Crabgrass (crabgrass; [4]): 6 | Crabgrass plant response rating (crabgrass; [5]): 9 | Crabgrass plant response rating (crabgrass; [6]): 9 | Crabgrass plant response rating (crabgrass; [7]): 0 | Crabgrass plant response rating (crabgrass; [8]): 0 | Giant foxtail plant response rating (giant foxtail; [1]): 0 | Giant foxtail plant response rating (giant foxtail; [2]): 0 | Plant response rating, Giant foxtail (giant foxtail; [3]): 3 | Plant response rating, Giant foxtail (giant foxtail; [4]): 4 | Giant foxtail plant response rating (giant foxtail; [5]): 10 | Giant foxtail plant response rating (giant foxtail; [6]): 10 | Giant foxtail plant response rating (giant foxtail; [7]): 0 | Giant foxtail plant response rating (giant foxtail; [8]): 0 | Morningglory plant response rating (morningglory; [1]): 4 | Morningglory plant response rating (morningglory; [2]): 4 | Plant response rating, Morningglory (morningglory; [3]): 0 | Plant response rating, Morningglory (morningglory; [4]): 0 | Morningglory plant response rating (morningglory; [5]): 0 | Morningglory plant response rating (morningglory; [6]): 0 | Morningglory plant response rating (morningglory; [7]): 2 | Morningglory plant response rating (morningglory; [8]): 3 | Velvetleaf plant response rating (velvetleaf; [1]): 0 | Velvetleaf plant response rating (velvetleaf; [2]): 0 | Plant response rating, Velvetleaf (velvetleaf; [3]): 0 | Plant response rating, Velvetleaf (velvetleaf; [4]): 0 | Velvetleaf plant response rating (velvetleaf; [5]): 0 | Velvetleaf plant response rating (velvetleaf; [6]): 0 | Velvetleaf plant response rating (velvetleaf; [7]): 0 | Velvetleaf plant response rating (velvetleaf; [8]): 0 | Wheat plant response rating (wheat; [1]): 0 | Wheat plant response rating (wheat; [2]): 0 | Plant response rating, Wheat (wheat; [3]): 0 | Plant response rating, Wheat (wheat; [4]): 0 | Wheat plant response rating (wheat; [5]): 0 | Wheat plant response rating (wheat; [6]): 0 | Wheat plant response rating (wheat; [7]): 0 | Wheat plant response rating (wheat; [8]): 0 | Wild oats plant response rating (wild oat; [1]): 0 | Wild oats plant response rating (wild oat; [2]): 0 | Plant response rating, Wild oats (wild oat; [3]): 0 | Plant response rating, Wild oats (wild oat; [4]): 0 | Wild oats plant response rating (wild oat; [5]): 0 | Wild oats plant response rating (wild oat; [6]): 0 | Wild oats plant response rating (wild oat; [7]): 0 | Wild oats plant response rating (wild oat; [8]): 0 | Nutsedge plant response rating (purple nutsedge; [1]): 0 | Nutsedge plant response rating (purple nutsedge; [2]): 0 | Plant response rating, Nutsedge (purple nutsedge; [3]): 0 | Plant response rating, Nutsedge (purple nutsedge; [4]): 0 | Nutsedge plant response rating (purple nutsedge; [5]): 0 | Nutsedge plant response rating (purple nutsedge; [6]): 0 | Nutsedge plant response rating (purple nutsedge; [7]): 0 | Nutsedge plant response rating (purple nutsedge; [8]): 0 | Plant response rating, Rice (0 to 10 scale, 0 is no effect, 10 is complete control) (rice; [9]): 0 | Rice plant response rating (0 to 10 scale, 0 is no effect, 10 is complete control) (rice; [10]): 0 | Rice plant response rating (rice; [11]): 0 | Rice plant response rating (rice; [12]): 0 | Plant response rating, S. Flatsedge (0 to 10 scale, 0 is no effect, 10 is complete control) (smallflower flatsedge; [9]): 0 | S. Flatsedge plant response rating (0 to 10 scale, 0 is no effect, 10 is complete control) (smallflower flatsedge; [10]): 0 | S. Flatsedge plant response rating (smallflower flatsedge; [11]): 0 | S. Flatsedge plant response rating (smallflower flatsedge; [12]): 0 | Plant response rating, Ducksalad (0 to 10 scale, 0 is no effect, 10 is complete control) (duck salad; [9]): 0 | Ducksalad plant response rating (0 to 10 scale, 0 is no effect, 10 is complete control) (duck salad; [10]): 0 | Ducksalad plant response rating (duck salad; [11]): 0 | Ducksalad plant response rating (duck salad; [12]): 0 | Plant response rating, Barnyardgrass (0 to 10 scale, 0 is no effect, 10 is complete control) (bamyardgrass; [9]): 0 | Barnyardgrass plant response rating (0 to 10 scale, 0 is no effect, 10 is complete control) (bamyardgrass; [10]): 0 | Barnyardgrass plant response rating (bamyardgrass; [11]): 0 | Barnyardgrass plant response rating (bamyardgrass; [12]): 0
